From US11215619B2 (priority 2019, dated 2022)

Columns and labels:
[1] = Photophysical characterization of 4QI (fluorescence spectrometry); type: physicochemical
Procedure: (§1) All fluorescence excitation and emission measurements were made at 25.00° C. using a PTI Alphascan-2 spectrofluorometer equipped with a 1×4 Multicell Block Peltier and temperature controller, with baseline correction and variable slit widths as specified. All fluorescence excitation spectra were recorded at the maximum emission wavelength of the fluorophore and emission spectra were recorded at the maximum excitation wavelength.
4QI-alcohol and 4QI-DMT contain the same fluorophore such that characterization of 4QI-alcohol is representative of the solvatochromic and photophysical capacity of the 4QI fluorophore. […] Excitation and emission in the visible region as opposed to the ultraviolet (UV) region is favorable because the dye can be excited using a visible lamp rather than a more expensive UV lamp.

[2] = Photostability of 4QI within a DNA helix; type: physicochemical; conditions: 6-month period, aqueous buffer pH 7.4
Text: The 4QI dye was attached to a glycerol backbone and converted into a phosphoramidite for site-specific incorporation into DNA using solid phase DNA synthesis.

OTABA [3] = test: Fluorescent titration of dye binding to OTABA; conditions: for Kd: apparent, dye binding to OTABA; for λem / λex: dye bound to OTABA; for λex (value in parentheses): footnote not given, line below the bound value
Procedure: Dye interaction with OTABA and subsequent displacement by OTA was initially investigated using fluorescence spectroscopy (FIG. 17) in the previously optimized OTA binding buffer. (Fadock et al., 2017) Additions of OTABA (up to 1.5 equiv.) to the dye (6 μM) caused dose-dependent increases in ligand emission at 488 nm for ThT (240-fold increase at 1.5 equiv. OTABA, FIG. 17a), 605 nm for the 4QI (42-fold, FIG. 17b) and 640 nm for BtC (8-fold, FIG. 17c).

OTABA [4] = test: Dye displacement from OTABA mediated by OTA (label-free aptasensor); type: binding; conditions: for Kd: apparent, OTA binding to OTABA from dye displacement, 0.5 μM OTABA; for % D (6 → 0.5 μM): OTA up to 1.5 equiv
Procedure: For dye displacement from the aptamer mediated by OTA, a 2:1 dye:OTABA mixture (12:6 μM) was treated with aliquots of OTA up to 1.5 equiv. (9 μM). Under these conditions, ThT was poorly displaced from the aptamer, displaying only a 6% drop in emission intensity (FIG. 17d). […] Significant differences in the ability of OTA to displace the dyes from the aptamer was not anticipated. Furthermore, given the relative binding affinities of the dyes for OTABA, ThT was expected to display the greatest ease of displacement. Clearly the ability of OTA to displace the dyes from the aptamer had little to do with the dye aptamer binding affinity.
To determine the analytical potential of the dye displacement assay, the 2:1 dye:OTABA starting mixture was optimized and the OTA titrations were repeated using 0.5 μM OTABA in the presence of 1 μM dye. […] Additions of OTA up to 1.5 equiv (0.75 μM) caused 93% BtC displacement, as evidenced by the loss of emission intensity for the aptamer-bound BtC at 640 nm, coupled with the loss of the ET band at 256 nm for BtC stacking with the G-tetrad of the folded aptamer.
From the OTA titrations involving hemicyanine dye displacement (4QI and BtC), a limit of detection (LoD)˜15 nM (6 ng/mL) and a limit of quantification (LoQ)˜45-47 nM (˜18 ng/mL) were determined (R^2=0.95-0.99). In contrast, an LoD of 73 nM (29 ng/mL) and LoQ of 222 nM (89 ng/mL, R^2=0.85) was determined from the ThT displacement data.

[5] = Kinetic studies of 4QI under oligonucleotide deprotection conditions; type: physicochemical
Procedure: Recall that standard conditions for oligonucleotide deprotection involve heating to 55° C. for 4 h in ammonium hydroxide (Table 3). […] Therefore, all mTBA were deprotected under UltraMild conditions.

[6] = Solvatochromic studies of 4QI; type: physicochemical
Procedure: as §1
Solvatochromatic studies were completed using quartz cells (Hellma 101-QS) with a light path of 10 mm. A 100 μM stock solution of 4QI was prepared in reagent grade DMSO. Using the stock solution, 3 μM solutions of 4QI were prepared in a series of solvents: MQ water, methanol, acetonitrile, THF, chloroform and isopropyl alcohol. After mixing by inversion (×20), emission and excitation spectra for each sample were recorded as described using slit widths of 5 nm.

thrombin = thrombin (Homo sapiens, UniProt P00734); conditions: isothermal titration calorimetry (Pagano et al. 2008); cited from earlier work
[7] = type: physicochemical; conditions: 6 μM oligonucleotide, 10% K+ buffer
[8] = first value: 6 μM OTABA, 12 μM dye
[9] = second value: 0.5 μM OTABA, 1 μM dye

| Molecule | Kd (OTABA [3]) | λem (OTABA [3]) | λex (OTABA [3]) | λex (value in parentheses) (OTABA [3]) | Kd (OTABA [4]; 1 μM dye) | % D (6 → 0.5 μM) (OTABA [4]; [8]) | % D (6 → 0.5 μM) (OTABA [4]; [9]) | also measured |
| --- | --- | --- | --- | --- | --- | --- | --- | --- |
| C[n+]1ccc(/C=C/c2cn(CCCO)c3ccccc23)c2ccccc21.[I-] [4QI, 4-(2-(1-(3-hydroxypropyl)-1H-indol-3-yl)vinyl)-1-methylquinolin-1-ium iodide] | 2500 nM | 605 nm | 532 nm | (493) nm | 356 nM | 28% | 47% | Stokes shift [1]: 104 nm; extinction coefficient [1]: 26,660 L/(mol·cm); stokes shift [1]: 90 nm; fluorescence emission ([1]; following excitation at 500 nm): 590 nm; λem maxima ([1]; free in H2O): 580 nm; λex maxima ([1]; free in H2O): 520 nm; photostability [2]: photostable; time to complete bleaching of 4QI absorbance ([5]; Standard deprotection conditions): ≤ 6.5 h; time to complete bleaching of 4QI absorbance ([5]; UltraFast deprotection conditions): ≤ 0.05 h; decrease of fluorescence intensity ([5]; UltraMild conditions, 17-hour kinetic study): 11%; λex max ([6]; Acetonitrile): 494 nm; λex max ([6]; H2O): 486 nm; λex max ([6]; Isopropyl-alcohol): 523 nm; λex max ([6]; Methanol): 512 nm; λex max ([6]; THF): 514 nm |
| TBA-15: Native thrombin binding aptamer 5′-GGTTGGTGTGGTTGG | – | – | – | – | – | – | – | Kd (thrombin): 330 nM; Tm GQ [7]: 53.5 °C |
| CCN(CC)c1ccc2cc(/C=C/c3sc4ccccc4[n+]3C)c(=O)oc2c1 [BtC] | 3200 nM | 640 nm | 580 nm | (549) nm | 112 ± 8.9 nM | 52% | 93% | – |
| Cc1ccc2c(c1)sc(-c1ccc(N(C)C)cc1)[n+]2C [ThT, Thioflavin T] | 10900 nM | 488 nm | 448 nm | (412) nm | 292 nM | 6% | 23% | – |
